In PubChem BioAssay AID248 (DTP/NCI, 2004):
Values joined by “and” are separate entries in the source; they are usually repeats but may differ in a detail not shown here. Equal entries are not always repeated. Inconclusive results and toxic doses are left out. No stated cut-off is given here; in the data, active means T/C of 150% or more; inactive means T/C below 125%.

Tested on: L1210 leukemia ip in BDF1 mice, survival T/C
Assay: NCI In Vivo Anticancer Drug Screen. Data for tumor model L1210 Leukemia (intraperitoneal) in B6D2F1 (BDF1) mice
Settings: higher = longer survival
Method in brief: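 Tumor cells were implanted, animals were treated, and survival was followed. The result divides the treated measurement by the vehicle-control measurement.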

Measured: T/C

CS(=O)(=O)OCCCNCCCOS(C)(=O)=O
inactive: endpoint: mean survival time, dose: 3.0 mg/kg/injection, schedule: Q03HX024 (ip), vehicle: saline 122 % of control | endpoint: mean survival time, dose: 5.0 mg/kg/injection, schedule: Q03HX008 (ip), vehicle: saline 119 % of control | endpoint: mean survival time, dose: 14.0 mg/kg/injection, schedule: Q01DX009 (oral), vehicle: saline 100 % of control | endpoint: mean survival time, dose: 23.0 mg/kg/injection, schedule: Q01DX009 (oral), vehicle: saline 115 % of control | endpoint: mean survival time, dose: 23.0 mg/kg/injection, schedule: Q04DX003 (iv), vehicle: saline 98 % of control | endpoint: mean survival time, dose: 25.0 mg/kg/injection, schedule: Q01DX001 (ip), vehicle: saline 115 % of control | endpoint: mean survival time, dose: 39.0 mg/kg/injection, schedule: Q01DX009 (sc), vehicle: saline 120 % of control | endpoint: mean survival time, dose: 39.0 mg/kg/injection, schedule: Q04DX003 (iv), vehicle: saline 87 % of control | endpoint: mean survival time, dose: 65.0 mg/kg/injection, schedule: Q01DX001 (oral), vehicle: saline 109 % of control | endpoint: mean survival time, dose: 65.0 mg/kg/injection, schedule: Q01DX009 (oral), vehicle: saline 106 % of control | endpoint: mean survival time, dose: 65.0 mg/kg/injection, schedule: Q04DX003 (iv), vehicle: saline 109 % of control | endpoint: mean survival time, dose: 65.0 mg/kg/injection, schedule: Q04DX003 (oral), vehicle: saline 120 % of control | endpoint: mean survival time, dose: 80.0 mg/kg/injection, schedule: Q01DX009 (ip), vehicle: saline 94 % of control and 122 % of control | endpoint: mean survival time, dose: 108.0 mg/kg/injection, schedule: Q01DX001 (oral), vehicle: saline 110 % of control | endpoint: mean survival time, dose: 108.0 mg/kg/injection, schedule: Q01DX001 (sc), vehicle: saline 115 % of control | endpoint: mean survival time, dose: 108.0 mg/kg/injection, schedule: Q01DX009 (sc), vehicle: saline 93 % of control | endpoint: mean survival time, dose: 108.0 mg/kg/injection, schedule: Q04DX003 (ip), vehicle: clinical formulation 108 % of control | endpoint: mean survival time, dose: 108.0 mg/kg/injection, schedule: Q04DX003 (ip), vehicle: water 100 % of control | endpoint: mean survival time, dose: 108.0 mg/kg/injection, schedule: Q04DX003 (iv), vehicle: saline 113 % of control | endpoint: mean survival time, dose: 180.0 mg/kg/injection, schedule: Q01DX001 (oral), vehicle: saline 120 % of control | endpoint: mean survival time, dose: 180.0 mg/kg/injection, schedule: Q01DX001 (sc), vehicle: saline 115 % of control | endpoint: mean survival time, dose: 180.0 mg/kg/injection, schedule: Q01DX003 (ip), vehicle: saline 95 % of control and 103 % of control | endpoint: mean survival time, dose: 180.0 mg/kg/injection, schedule: Q04DX003 (iv), vehicle: saline 118 % of control | endpoint: mean survival time, dose: 180.0 mg/kg/injection, schedule: Q04DX003 (oral), vehicle: saline 95 % of control | endpoint: median survival time, dose: 12.5 mg/kg/injection, schedule: Q01DX009 (ip), vehicle: saline 115 % of control | endpoint: median survival time, dose: 23.0 mg/kg/injection, schedule: Q01DX005 (ip), vehicle: saline 122 % of control | endpoint: median survival time, dose: 39.0 mg/kg/injection, schedule: Q01DX005 (sc), vehicle: saline 122 % of control | endpoint: median survival time, dose: 65.0 mg/kg/injection, schedule: Q01DX009 (ip), vehicle: saline 100 % of control and 115 % of control | endpoint: median survival time, dose: 108.0 mg/kg/injection, schedule: Q01DX005 (ip), vehicle: saline 100 % of control | endpoint: median survival time, dose: 108.0 mg/kg/injection, schedule: Q01DX005 (sc), vehicle: saline 88 % of control | endpoint: median survival time, dose: 200.0 mg/kg/injection, schedule: Q04DX003 (ip), vehicle: saline 100 % of control
active: endpoint: mean survival time, dose: 5.0 mg/kg/injection, schedule: Q03HX024 (ip), vehicle: saline 152 % of control | endpoint: mean survival time, dose: 8.4 mg/kg/injection, schedule: Q01DX009 (ip), vehicle: saline 160 % of control and 173 % of control | endpoint: mean survival time, dose: 8.4 mg/kg/injection, schedule: Q03HX008 (ip), vehicle: saline 150 % of control | endpoint: mean survival time, dose: 8.4 mg/kg/injection, schedule: Q03HX016 (ip), vehicle: saline 156 % of control | endpoint: mean survival time, dose: 8.4 mg/kg/injection, schedule: Q03HX024 (ip), vehicle: saline 155 % of control and 245 % of control | endpoint: mean survival time, dose: 14.0 mg/kg/injection, schedule: Q01DX015 (ip), vehicle: saline 155 % of control | endpoint: mean survival time, dose: 14.0 mg/kg/injection, schedule: Q03HX008 (ip), vehicle: saline 166 % of control and 239 % of control | endpoint: mean survival time, dose: 14.0 mg/kg/injection, schedule: Q03HX016 (ip), vehicle: saline 188 % of control and 303 % of control | endpoint: mean survival time, dose: 14.0 mg/kg/injection, schedule: Q03HX024 (ip), vehicle: saline 332 % of control and 344 % of control | endpoint: mean survival time, dose: 20.0 mg/kg/injection, schedule: Q01DX009 (ip), vehicle: saline 164 % of control and 179 % of control | endpoint: mean survival time, dose: 21.0 mg/kg/injection, schedule: Q01DX015 (ip), vehicle: saline 155 % of control | endpoint: mean survival time, dose: 23.0 mg/kg/injection, schedule: Q03HX008 (ip), vehicle: saline 184 % of control and 327 % of control | endpoint: mean survival time, dose: 23.0 mg/kg/injection, schedule: Q03HX016 (ip), vehicle: saline 244 % of control and 440 % of control | endpoint: mean survival time, dose: 36.0 mg/kg/injection, schedule: Q01DX015 (ip), vehicle: saline 242 % of control | endpoint: mean survival time, dose: 39.0 mg/kg/injection, schedule: Q01DX003 (ip), vehicle: saline 164 % of control and 170 % of control | endpoint: mean survival time, dose: 39.0 mg/kg/injection, schedule: Q01DX005 (ip), vehicle: saline 190 % of control | endpoint: mean survival time, dose: 39.0 mg/kg/injection, schedule: Q04DX003 (ip), vehicle: clinical formulation 157 % of control | endpoint: mean survival time, dose: 39.0 mg/kg/injection, schedule: Q04DX003 (ip), vehicle: saline 212 % of control | endpoint: mean survival time, dose: 39.0 mg/kg/injection, schedule: Q08DX002 (ip), vehicle: saline 200 % of control | endpoint: mean survival time, dose: 40.0 mg/kg/injection, schedule: Q01DX009 (ip), vehicle: saline 178 % of control and 188 % of control | endpoint: mean survival time, dose: 60.0 mg/kg/injection, schedule: Q01DX015 (ip), vehicle: saline 159 % of control | endpoint: mean survival time, dose: 65.0 mg/kg/injection, schedule: Q01DX001 (ip), vehicle: saline 160 % of control | endpoint: mean survival time, dose: 65.0 mg/kg/injection, schedule: Q01DX003 (ip), vehicle: saline 241 % of control | endpoint: mean survival time, dose: 65.0 mg/kg/injection, schedule: Q01DX005 (ip), vehicle: saline 402 % of control | endpoint: mean survival time, dose: 65.0 mg/kg/injection, schedule: Q04DX003 (ip), vehicle: clinical formulation 159 % of control | endpoint: mean survival time, dose: 65.0 mg/kg/injection, schedule: Q04DX003 (ip), vehicle: saline 299 % of control and 445 % of control | endpoint: mean survival time, dose: 65.0 mg/kg/injection, schedule: Q04DX003 (ip), vehicle: water 173 % of control | endpoint: mean survival time, dose: 65.0 mg/kg/injection, schedule: Q08DX002 (ip), vehicle: saline 226 % of control | endpoint: mean survival time, dose: 100.0 mg/kg/injection, schedule: Q01DX001 (ip), vehicle: saline 150 % of control | endpoint: mean survival time, dose: 108.0 mg/kg/injection, schedule: Q01DX001 (ip), vehicle: saline 193 % of control and 337 % of control | endpoint: mean survival time, dose: 108.0 mg/kg/injection, schedule: Q01DX003 (ip), vehicle: saline 247 % of control and 310 % of control | endpoint: mean survival time, dose: 108.0 mg/kg/injection, schedule: Q01DX005 (ip), vehicle: saline 280 % of control | endpoint: mean survival time, dose: 108.0 mg/kg/injection, schedule: Q04DX003 (ip), vehicle: saline 267 % of control and 422 % of control | endpoint: mean survival time, dose: 180.0 mg/kg/injection, schedule: Q01DX001 (ip), vehicle: saline 246 % of control | endpoint: mean survival time, dose: 180.0 mg/kg/injection, schedule: Q08DX002 (ip), vehicle: saline 421 % of control | endpoint: mean survival time, dose: 200.0 mg/kg/injection, schedule: Q01DX001 (ip), vehicle: saline 157 % of control and 176 % of control and 200 % of control | endpoint: median survival time, dose: 25.0 mg/kg/injection, schedule: Q01DX009 (ip), vehicle: saline 150 % of control | endpoint: median survival time, dose: 39.0 mg/kg/injection, schedule: Q01DX005 (ip), vehicle: saline 155 % of control | endpoint: median survival time, dose: 39.0 mg/kg/injection, schedule: Q01DX009 (ip), vehicle: saline 150 % of control | endpoint: median survival time, dose: 50.0 mg/kg/injection, schedule: Q01DX009 (ip), vehicle: saline 180 % of control | endpoint: median survival time, dose: 50.0 mg/kg/injection, schedule: Q04DX003 (ip), vehicle: saline 161 % of control | endpoint: median survival time, dose: 65.0 mg/kg/injection, schedule: Q01DX005 (ip), vehicle: saline 155 % of control | endpoint: median survival time, dose: 65.0 mg/kg/injection, schedule: Q04DX003 (ip), vehicle: saline 155 % of control | endpoint: median survival time, dose: 100.0 mg/kg/injection, schedule: Q04DX003 (ip), vehicle: saline 177 % of control and 666 % of control | endpoint: median survival time, dose: 108.0 mg/kg/injection, schedule: Q01DX001 (ip), vehicle: saline 155 % of control | endpoint: median survival time, dose: 108.0 mg/kg/injection, schedule: Q04DX003 (ip), vehicle: saline 188 % of control

CN(Cc1cccc(Cl)c1)C(=O)Nc1ccccc1
inactive: endpoint: mean survival time, dose: 100.0 mg/kg/injection, schedule: Q04DX002 (ip), vehicle: Klucel (hydroxypropylcellulose) (HPC) 110 % of control | endpoint: mean survival time, dose: 200.0 mg/kg/injection, schedule: Q04DX002 (ip), vehicle: Klucel (hydroxypropylcellulose) (HPC) 110 % of control | endpoint: mean survival time, dose: 400.0 mg/kg/injection, schedule: Q04DX002 (ip), vehicle: Klucel (hydroxypropylcellulose) (HPC) 107 % of control

CC/C(C)=C\CC/C(C)=C\COc1ccccc1C
inactive: endpoint: mean survival time, dose: 100.0 mg/kg/injection, schedule: Q04DX002 (ip), vehicle: saline with Tween-80 91 % of control | endpoint: mean survival time, dose: 200.0 mg/kg/injection, schedule: Q04DX002 (ip), vehicle: saline with Tween-80 94 % of control | endpoint: mean survival time, dose: 400.0 mg/kg/injection, schedule: Q04DX002 (ip), vehicle: saline with Tween-80 89 % of control
